Source: patent US9468209B2, “Method for eradicating weeds with derivatives of 3-acetyl-5-sec-butyl-4-hydroxy-3-pyrrolin-2-one” (priority 2012, dated 2016)

Experiments:
Crofton weed = test: Needle puncture pathogenic test on slightly wounded leaf of Crofton weed; format: in vivo; conditions: for Time of Disease spot / Average diameter of spot after 24 h / Time / Average diameter of the damage spot after 24 h: 50 μg/mL, 25° C., natural light; for Time / Average diameter of the damage spot after 24 h: salts, Crofton weed
Description: 3-acetyl-5-sec-butyl-4-hydroxy-3-pyrrolin-2-one analogs were dissolved in a small amount of methanol and diluted with water to a concentration of 5-100 μg/g. A pathogenic test was conducted by placing the toxic liquid on the slightly wounded leaf of Crofton weed with a needle. The test has shown that the pathogenic capability of 3-acetyl-5-sec-butyl-4-hydroxy-3-pyrrolin-2-one analogs with respect to Crofton weed increases with the increase of concentration. The spot diameter caused on the leaf of Crofton weed after 24 hours was 2 mm at 50 μg/g.
3-acetyl-5-sec-butyl-4-hydroxy-3-pyrrolin-2-one analogue (Table 3, compounds 10-57) was dissolved in small amount of methanol. The solution was then diluted with distilled water to a concentration of 50 μg/mL. Methanol solution with same concentration and pure distilled water were used as control of the experiment. A pathogenic test was conducted by placing the toxic liquid on the slightly wounded leaf of Crofton weed with a needle. The experiment was carried out at 25° C. under the natural light and each test was repeated 6 times. It was measure the diameter of the spot after 24 h. […] The size of the side chain also has an effect on their activity.
Fourteen salts of 3-acetyl-5-sec-butyl-4-hydroxy-3-pyrrolin-2-one analogs were dissolved in small amount of methanol and diluted with distilled water to a concentration of 50 μg/mL. Methanol/water mixture was also prepared and used as control. Needle puncture method was used for the test on the small pieces of Crofton weed. Each treatment was repeated six times or more. The test samples were kept under natural light at 25° C. for 24 hours. The diameters of damaged spot of the plant leaves were measured by vernier caliper.

[1] = test system: fluorescence of chlorophyll; test: Fluorescence of chlorophyll of treated Crofton weed leaves; format: biochemical; conditions: 50 μg/mL, strong light 12 hours
Description: (§1) Compounds 10-57 were dissolved in small amount of methanol. The solutions were then diluted with distilled water to a concentration of 50 μg/mL. A mixture of methanol and water in the same ratio as the sample solution was also prepared and used as control in the experiment. The healthy leaves of Crofton weed were washed in water for 30 minutes and then rinsed with distilled water. The clean and tissue dried leaves were placed in petri dish with the back-side of the leaves facing up. Wet filter paper was also placed in the in petri dish for moisture control. Water, methanol and chemical solutions of the analogues were applied to the back-side of each leaf. Test sample was then placed in vacuum chamber at 25° C. for 15 min followed by exposure to the strong light (400 μM m^−2 s^−1) for 12 hours. The leaf sample went through a series of test, and the Hill reaction rate, the electron transfer activity and fluorescence of chlorophyll were measured. Four leaves were used for each treatment and each test was repeated three times.

photosystem II = test: PSII oxygen evolution / electron transfer activity of treated Crofton weed leaves; format: biochemical; conditions: 50 μg/mL, strong light 12 hours
Description: as §1

Hill reaction = Hill reaction activity of treated Crofton weed leaves; format: biochemical; conditions: 50 μg/mL, strong light 12 hours
Description: as §1

Compound | Time of Disease spot (Crofton weed; Crofton weed leaf) | Average diameter of spot after 24 h (Crofton weed; Crofton weed leaf, 24 h) | Fv/Fm [1] | PSII Activity of oxygen evolution (photosystem II) | Activity of Hill Reaction (Hill reaction) | Time (Crofton weed) | Average diameter of the damage spot after 24 h (Crofton weed; 24 h) | Avg. diameter of the spot after 24 h (Crofton weed; Crofton weed leaf, 24 h, analogs with formula (I) and (II)) | Time of disease spot to occur (Crofton weed; Crofton weed leaf, analogs with formula (I) and (II))
CC(=O)C1=C(O)C(CCC(N)=O)NC1=O (centres unmarked) [Compound 37] | 24 ± 0.08 h | 1.64 ± 0.25 mm | – | – | – | – | – | – | –
CCCCCCCC1NC(=O)C(C(C)=O)=C1O (centres unmarked) [Compound 17] | 9.5 ± 2.36 h | 7.94 ± 1.30 mm | 0.82 | 27.04 uMO2/mgChlh | 57.13 uMO2/mgChlh | – | – | – | –
CCC(C)(C)C1NC(=O)C(C(C)=O)=C1O (centres unmarked) [Compound 32] | 12.5 ± 3.75 h | 4.82 ± 1.44 mm | 0.82 | 32.13 uMO2/mgChlh | 63.42 uMO2/mgChlh | – | – | – | –
CCCC1(C)NC(=O)C(C(C)=O)=C1O (centres unmarked) [Compound 26] | 13.61 ± 1.35 h | 3.31 ± 0.07 mm | 0.82 | 58.01 uMO2/mgChlh | 89.15 uMO2/mgChlh | – | – | – | –
CSCCC1NC(=O)C(C(C)=O)=C1O (centres unmarked) [Compound 41] | 20.8 ± 3.00 h | 2.45 ± 0.24 mm | 0.83 | 41.32 uMO2/mgChlh | 59.07 uMO2/mgChlh | – | – | – | –
Ammonium salt of 3-acetyl-5-ethyl-4-hydroxy-1H-pyrrol-2(5H)-one | – | – | – | – | – | 10.3 ± 1.50 h | 4.97 ± 1.01 mm | – | –
CCC1NC(=O)C(C(C)=O)=C1O.[K] (centres unmarked) [f, Potassium salt of 3-acetyl-5-ethyl-4-hydroxy-1H-pyrrol-2(5H)-one] | – | – | – | – | – | 14.2 ± 2.00 h | 3.72 ± 0.28 mm | – | –
Zinc salt of 3-acetyl-5-ethyl-4-hydroxy-1H-pyrrol-2(5H)-one [j] | – | – | – | – | – | 15.1 ± 4.00 h | 2.91 ± 0.02 mm | – | –
CCOCCC(=O)C1=C(O)C(C(C)CC)NC1=O (centres unmarked) [Compound 45] | 20.3 ± 0.57 h | 2.73 ± 0.73 mm | 0.79 | 27.04 uMO2/mgChlh | 41.00 uMO2/mgChlh | – | – | – | –
CCC1NC(=O)C(C(C)=O)=C1O (centres unmarked) [Compound 12] | 15.2 ± 0.35 h | 2.77 ± 0.23 mm | 0.83 | 34.54 uMO2/mgChlh | 70.32 uMO2/mgChlh | – | – | – | –
Sodium salt of 3-acetyl-4-hydroxy-5-(prop-1-enyl)-1H-pyrrol-2(5H)-one | – | – | – | – | – | 16.8 ± 1.85 h | 2.42 ± 0.05 mm | – | –
CCCC1(CCC)NC(=O)C(C(C)=O)=C1O [Compound 25] | 15.22 ± 2.00 h | 2.44 ± 0.10 mm | 0.82 | 57.12 uMO2/mgChlh | 97.55 uMO2/mgChlh | – | – | – | –
CC(=O)C1=C(O)C(C)(C)NC1=O [Compound 22] | 20.0 ± 1.63 h | 1.76 ± 0.24 mm | 0.82 | 38.05 uMO2/mgChlh | 56.16 uMO2/mgChlh | – | – | – | –
CC(=O)C1=C(O)C(CCC(=O)O)NC1=O (centres unmarked) [Compound 35] | 26.4 ± 0.12 h | 1.27 ± 0.02 mm | – | – | – | – | – | – | –
Zinc salt of 3-acetyl-4-hydroxy-5,5-dimethyl-1H-pyrrol-2(5H)-one | – | – | – | – | – | 18.2 ± 2.50 h | 2.63 ± 0.06 mm | – | –
Manganese salt of 3-acetyl-5-ethyl-4-hydroxy-1H-pyrrol-2(5H)-one [i] | – | – | – | – | – | 14.3 ± 3.15 h | 3.24 ± 0.33 mm | – | –
Calcium salt of 3-acetyl-5-ethyl-4-hydroxy-1H-pyrrol-2(5H)-one [g] | – | – | – | – | – | 18.7 ± 3.00 h | 2.29 ± 0.19 mm | – | –
CCC1(C)NC(=O)C(C(C)=O)=C1O (centres unmarked) [Compound 24] | 16.21 ± 3.55 h | 2.43 ± 0.07 mm | 0.83 | 43.01 uMO2/mgChlh | 71.37 uMO2/mgChlh | – | – | – | –
CC(=O)C1=C(O)CNC1=O [Compound 10] | 29 ± 6.30 h | 1.11 ± 0.16 mm | 0.79 | 47.55 uMO2/mgChlh | 84.32 uMO2/mgChlh | – | – | – | –

Compound | Time of Disease spot (Crofton weed; Crofton weed leaf) | Average diameter of spot after 24 h (Crofton weed; Crofton weed leaf, 24 h) | Fv/Fm [1] | PSII Activity of oxygen evolution (photosystem II) | Activity of Hill Reaction (Hill reaction) | Time (Crofton weed) | Average diameter of the damage spot after 24 h (Crofton weed; 24 h) | Avg. diameter of the spot after 24 h (Crofton weed; Crofton weed leaf, 24 h, analogs with formula (I) and (II)) | Time of disease spot to occur (Crofton weed; Crofton weed leaf, analogs with formula (I) and (II))
Sodium salt of 3-acetyl-4-hydroxy-1H-pyrrol-2(5H)-one | – | – | – | – | – | 26 ± 7.30 h | 1.34 ± 0.08 mm | – | –
CCCCC1(CCCC)NC(=O)C(C(C)=O)=C1O [Compound 28] | 16.9 ± 2.25 h | 2.40 ± 0.11 mm | 0.82 | 31.76 uMO2/mgChlh | 75.03 uMO2/mgChlh | – | – | – | –
CCOC1=C(O)C(C(C)CC)NC1=O (centres unmarked) [Compound 5] | – | – | 0.82 | 24.10 uMO2/mgChlh | 52.31 uMO2/mgChlh | – | – | 2.35 ± 0.14 mm | 20.7 ± 0.75 h
CCCCC1(C)NC(=O)C(C(C)=O)=C1O (centres unmarked) [Compound 29] | 12.1 ± 3.75 h | 5.77 ± 1.15 mm | – | – | – | – | – | – | –
CCC(C)C1NC(=O)C(C(=O)OCCc2ccccc2)=C1O (centres unmarked) [Compound 46] | 22.1 ± 1.35 h | 2.31 ± 0.44 mm | 0.82 | 43.67 uMO2/mgChlh | 58.78 uMO2/mgChlh | – | – | – | –
CC=CC1NC(=O)C(C(C)=O)=C1O (centres unmarked) [Compound 21] | 16.5 ± 1.30 h | 2.89 ± 0.14 mm | 0.77 | 42.25 uMO2/mgChlh | 62.34 uMO2/mgChlh | – | – | – | –
CCCC(c1ccccc1)C1NC(=O)C(C(C)=O)=C1O (centres unmarked) [Compound 20] | 21.1 ± 3.56 h | 1.57 ± 0.04 mm | 0.82 | 43.40 uMO2/mgChlh | 57.23 uMO2/mgChlh | – | – | – | –
Sodium salt of 3-acetyl-4-hydroxy-5-propyl-1H-pyrrol-2(5H)-one | – | – | – | – | – | 10.2 ± 2.50 h | 5.07 ± 0.11 mm | – | –
Copper salt of 3-acetyl-5-ethyl-4-hydroxy-1H-pyrrol-2(5H)-one | – | – | – | – | – | 21.6 ± 3.05 h | 1.22 ± 0.25 mm | – | –
CC(=O)C1=C(O)C(CC(N)=O)NC1=O (centres unmarked) [Compound 36] | 21.9 ± 0.23 h | 1.54 ± 0.07 mm | – | – | – | – | – | – | –
Magnesium (II) salt of 3-acetyl-5-ethyl-4-hydroxy-1H-pyrrol-2(5H)-one | – | – | – | – | – | 17.5 ± 1.50 h | 2.88 ± 0.10 mm | – | –
Iron salt of 3-acetyl-5-ethyl-4-hydroxy-1H-pyrrol-2(5H)-one [k] | – | – | – | – | – | 17.2 ± 0.95 h | 1.72 ± 0.15 mm | – | –
Sodium salt of 3-acetyl-4-hydroxy-5-methyl-1H-pyrrol-2(5H)-one [b] | – | – | – | – | – | 19.5 ± 0.5 h | 2.21 ± 0.18 mm | – | –
CCC(=O)C1=C(O)C(C(C)CC)NC1=O (centres unmarked) [Compound 42] | 19.4 ± 2.50 h | 2.24 ± 0.45 mm | – | – | – | – | – | – | –
CCCC(C)C1NC(=O)C(C(C)=O)=C1O (centres unmarked) [Compound 31] | 10.8 ± 2.00 h | 5.93 ± 1.35 mm | – | – | – | – | – | – | –
Sodium salt of 3-acetyl-5-ethyl-4-hydroxy-1H-pyrrol-2(5H)-one | – | – | – | – | – | 14.5 ± 1.8 h | 3.11 ± 0.54 mm | – | –
CCCC(C)C1NC(=O)C(C(C)=O)=C1[O-].[Na+] (centres unmarked) [m, Sodium salt of 3-acetyl-4-hydroxy-5-(Pentan-2-yl)-1H-pyrrol-2(5H)-one] | – | – | – | – | – | 8.5 ± 2.00 h | 8.27 ± 1.72 mm | – | –
CCC(C)C1NC(=O)C(C(=O)NCc2ccccc2)=C1O (centres unmarked) [Compound 49] | 23.2 ± 2.86 h | 2.47 ± 0.08 mm | – | – | – | – | – | – | –
